According to patent publication US9815851B2, “Pyrrolo carboxamides as modulators of orphan nuclear receptor RAR-related orphan receptor-gamma (RORγ, NR1F3) activity and for the treatment of chronic inflammatory and autoimmune diseases” (PHENEX PHARMACEUTICALS AG, priority 2011, dated 2017):
Like-named read-outs stand apart in the source and are kept apart here.

What was measured:
[1] = target: T1, RORγ ligand binding domain (LBD) (Homo sapiens, UniProt P51449); experiment: TR-FRET Activity Assay (ligand sensing, RORγ-LBD / coactivator peptide interaction, LANCE); assay type: biochemical
T1 construct: made in house; host or cells: E. coli BL-21 (BL3), vector pDEST15
T1 sequence (P51449 269-508 limits assumed): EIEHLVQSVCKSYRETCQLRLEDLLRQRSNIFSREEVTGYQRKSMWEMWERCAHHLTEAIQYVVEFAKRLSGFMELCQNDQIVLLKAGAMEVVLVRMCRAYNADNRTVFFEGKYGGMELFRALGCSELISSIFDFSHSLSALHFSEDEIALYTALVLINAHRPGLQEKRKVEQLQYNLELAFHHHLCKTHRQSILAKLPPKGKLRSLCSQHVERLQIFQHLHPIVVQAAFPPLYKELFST

RORγ = target: T2, RORγ (UniProt P51449); experiment: RORγ Gal4 Reporter Gene Assay in 293T cells (firefly and renilla luciferase); assay type: cell-based, human
T2 sequence (P51449 1-518): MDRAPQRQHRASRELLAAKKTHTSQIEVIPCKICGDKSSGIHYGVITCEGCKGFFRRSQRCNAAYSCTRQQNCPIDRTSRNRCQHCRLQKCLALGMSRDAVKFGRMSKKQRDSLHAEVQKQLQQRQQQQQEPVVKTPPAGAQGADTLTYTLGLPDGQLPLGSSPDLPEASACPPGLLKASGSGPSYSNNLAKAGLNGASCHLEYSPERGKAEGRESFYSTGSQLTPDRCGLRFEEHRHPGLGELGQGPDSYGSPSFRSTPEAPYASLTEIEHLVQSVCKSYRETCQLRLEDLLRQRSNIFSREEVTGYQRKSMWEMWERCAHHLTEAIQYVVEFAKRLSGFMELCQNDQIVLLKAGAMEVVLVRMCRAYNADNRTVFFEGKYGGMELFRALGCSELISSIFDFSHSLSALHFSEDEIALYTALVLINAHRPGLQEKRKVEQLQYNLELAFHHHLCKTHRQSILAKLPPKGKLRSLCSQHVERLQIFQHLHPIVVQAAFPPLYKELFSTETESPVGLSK

[2] = first value of the cell FRET/FF/REN, TR-FRET activity assay, read-out: pIC50 (FRET) (converted)
[3] = second value of the cell, Gal4 reporter gene assay in 293T cells, firefly luciferase
[4] = third value of the cell, Gal4 reporter gene assay in 293T cells, renilla normalised luciferase

IC50 [1, 2] [µM] | pIC50 (FF) (RORγ; [3]) | pIC50 (REN) (RORγ; [4]) | Compound | IC50 [1] [µM] | pIC50 (FF) (RORγ) | pIC50 (REN) (RORγ)
0.251 | 7.1 | 7.2 | Cc1c(C(=O)NCC(C)(C)C(=O)NCCCCO)cc(-c2cc(C(C)(C)C)c3c(c2)C2(CCO3)CC2)n1CC1CCCCC1 [11/7] |  |  | 
 |  |  | Cc1c(C(=O)NC2COC2)cc(-c2cc(C(=O)N(C)C(C)(C)C)cc(C(F)(F)F)c2)n1CC1CCCCC1 [15/1] | 2 | 5.7/6.6/6.7 | 5.7/6.6/6.7
1 | 6.3 | 6.3 | Cc1c(C(=O)NC2COC2)cc(-c2cc(C(=O)NC(C)C)cc(C(F)(F)F)c2)n1CC1CCCCC1 [15/2] |  |  | 
0.398 | 7.0 | 7.1 | CCC(C)(C)NC(=O)c1cc(-c2cc(C(=O)NC3COC3)c(C)n2CC2CCCCC2)cc(C(F)(F)F)c1 [15/3] |  |  | 
 |  |  | Cc1c(C(=O)NC2COC2)cc(-c2cc(C(=O)N(C)C(C)(C)C)cc(C(C)(C)C)c2)n1CC1CCCCC1 [15/4] | 1.58 | 5.8/7.3/7.3 | 5.8/7.3/7.3
 |  |  | Cc1c(C(=O)NC2COC2)cc(-c2cc(C(=O)NC(C)(C)C)cc(C(C)(C)C)c2)n1CC1CCCCC1 [15/5] | 0.794 | 6.1/7.6/7.7 | 6.1/7.6/7.7
1.26 | 7.4 | 7.4 | Cc1c(C(=O)NC2COC2)cc(-c2cc(C(=O)NC(C)C)cc(C(C)(C)C)c2)n1CC1CCCCC1 [15/6] |  |  | 
 |  |  | Cc1c(C(=O)NCC(C)(C)O)cc(-c2cc(C(=O)NC(C)(C)C)cc(C(C)(C)C)c2)n1CC1CCCCC1 [15/8] | 1 | 6.0/7.3/7.4 | 6.0/7.3/7.4
1 | 6.9 | 7.0 | Cc1c(C(=O)NCC(C)(C)O)cc(-c2cc(C(=O)NC(C)C)cc(C(C)(C)C)c2)n1CC1CCCCC1 [15/9] |  |  | 
 |  |  | Cc1c(C(=O)NC2CCOCC2)cc(-c2ccc(S(=O)(=O)N(CC(F)(F)F)C(C)(C)C)c(C(C)(C)C)c2)n1CC1CCCCC1 [17/1] | 1.26 | 5.9/8.0/7.9 | 5.9/8.0/7.9
 |  |  | Cc1c(C(=O)NCCC[S+](C)[O-])cc(-c2cc(C(C)(C)C)c3c(c2)C2(CCO3)CC2)n1CC1CCCCC1 (stereo not drawn) [17/2] | 1 | 6.0/6.6/6.5 | 6.0/6.6/6.5
 |  |  | Cc1c(C(=O)NCCCCCS(C)(=O)=O)cc(-c2cc(C(C)(C)C)c3c(c2)C2(CCO3)CC2)n1CC1CCCCC1 [17/4] | 0.631 | 6.2/6.7/6.7 | 6.2/6.7/6.7
 |  |  | Cc1c(C(=O)NN2CCOCC2)cc(-c2cc(C(C)(C)C)c3c(c2)C2(CCO3)CC2)n1CC1CCCCC1 [17/9] | 0.631 | 6.2/6.8/6.8 | 6.2/6.8/6.8
 |  |  | Cc1c(C(=O)NCC2CCS(=O)(=O)CC2)cc(-c2cc(C(C)(C)C)c3c(c2)C2(CCO3)CC2)n1CC1CCCCC1 [17/10] | 0.398 | 6.4/7.6/7.6 | 6.4/7.6/7.6
 |  |  | Cc1c(C(=O)NCC2(S(C)(=O)=O)CCOCC2)cc(-c2cc(C(C)(C)C)c3c(c2)C2(CCO3)CC2)n1CC1CCCCC1 [17/11] | 0.2 | 6.7/7.2/7.2 | 6.7/7.2/7.2
 |  |  | Cc1c(C(=O)NC2(C)COC2)cc(-c2cc(C(C)(C)C)c3c(c2)C2(CCO3)CC2)n1CC1CCCCC1 [17/13] | 0.631 | 6.2/6.8/6.9 | 6.2/6.8/6.9
1.26 | 5.9 | 5.7 | Cc1c(C(=O)NCC2COCCN2C)cc(-c2cc(C(C)(C)C)c3c(c2)C2(CCO3)CC2)n1CC1CCCCC1 (stereo not drawn) [17/14] |  |  | 

IC50 [1, 2] [µM] | pIC50 (FF) (RORγ; [3]) | pIC50 (REN) (RORγ; [4]) | Compound | IC50 [1] [µM] | pIC50 (FF) (RORγ) | pIC50 (REN) (RORγ)
0.794 | 7.2 | 7.1 | Cc1c(C(=O)NC2CCS(=O)(=O)C2)cc(-c2cc(C(C)(C)C)c3c(c2)C2(CCO3)CC2)n1CC1CCCCC1 (stereo not drawn) [17/15] |  |  | 
3.98 | 6.1 | 6.0 | Cc1c(C(=O)NCc2nc(C(=O)O)co2)cc(-c2cc(C(C)(C)C)c3c(c2)C2(CCO3)CC2)n1CC1CCCCC1 [17/16] |  |  | 
 |  |  | Cc1c(C(=O)NCc2nc(C(N)=O)co2)cc(-c2cc(C(C)(C)C)c3c(c2)C2(CCO3)CC2)n1CC1CCCCC1 [17/17] | 0.794 | 6.1/6.3/6.4 | 6.1/6.3/6.4
 |  |  | Cc1c(C(=O)NCc2cocn2)cc(-c2cc(C(C)(C)C)c3c(c2)C2(CCO3)CC2)n1CC1CCCCC1 [17/18] | 1 | 6.0/6.1/6.1 | 6.0/6.1/6.1
0.794 | 7.5 | 7.5 | Cc1c(C(=O)NCC(C)(C)CC(=O)O)cc(-c2cc(C(C)(C)C)c3c(c2)C2(CCO3)CC2)n1CC1CCCCC1 [17/19] |  |  | 
0.398 | 7.1 | 7.1 | Cc1c(C(=O)NCC(C)(C)CC(N)=O)cc(-c2cc(C(C)(C)C)c3c(c2)C2(CCO3)CC2)n1CC1CCCCC1 [17/20] |  |  | 
 |  |  | Cc1c(C(=O)NC2CC(=O)C2)cc(-c2cc(C(C)(C)C)c3c(c2)C2(CCO3)CC2)n1CC1CCCCC1 [17/21] | 0.631 | 6.2/7.0/6.9 | 6.2/7.0/6.9
3.16 | 5.8 | 5.7 | Cc1c(C(=O)NC2SC(=O)NC2=O)cc(-c2cc(C(C)(C)C)c3c(c2)C2(CCO3)CC2)n1CC1CCCCC1 (stereo not drawn) [17/24] |  |  | 
 |  |  | Cc1c(C(=O)NC2C[S+]([O-])C2)cc(-c2cc(C(C)(C)C)c3c(c2)C2(CCO3)CC2)n1CC1CCCCC1 (stereo not drawn) [17/25] | 0.316 | 6.5/6.9/7.0 | 6.5/6.9/7.0
1.58 | 7.3 | 7.3 | Cc1c(C(=O)NCC(C)(C)C(=O)NS(C)(=O)=O)cc(-c2cc(C(C)(C)C)c3c(c2)C2(CCO3)CC2)n1CC1CCCCC1 [17/26] |  |  | 
1.26 | 6.8 | 6.7 | Cc1c(C(=O)NCC(C)(C)NC(=O)CCC(=O)O)cc(-c2cc(C(C)(C)C)c3c(c2)C2(CCO3)CC2)n1CC1CCCCC1 [17/29] |  |  | 
0.251 | 7.7 | 7.7 | Cc1c(C(=O)NCC(C)(C)NC(=O)CO)cc(-c2cc(C(C)(C)C)c3c(c2)C2(CCO3)CC2)n1CC1CCCCC1 [17/30] |  |  | 
 |  |  | Cc1c(C(=O)NCC(C)(C)NC(=O)CCO)cc(-c2cc(C(C)(C)C)c3c(c2)C2(CCO3)CC2)n1CC1CCCCC1 [17/31] | 1 | 6.0/7.3/7.3 | 6.0/7.3/7.3
 |  |  | COCCS(=O)(=O)NC(C)(C)CNC(=O)c1cc(-c2cc(C(C)(C)C)c3c(c2)C2(CCO3)CC2)n(CC2CCCCC2)c1C [17/32] | 0.2 | 6.7/7.2/7.2 | 6.7/7.2/7.2
0.631 | 7.1 | 7.2 | Cc1c(C(=O)NCC(C)(C)NS(=O)(=O)C2CC2)cc(-c2cc(C(C)(C)C)c3c(c2)C2(CCO3)CC2)n1CC1CCCCC1 [17/33] |  |  | 
1.58 | 7.0 | 6.9 | Cc1c(C(=O)NCC2(C(=O)NCCCO)CCOCC2)cc(-c2cc(C(C)(C)C)c3c(c2)C2(CCO3)CC2)n1CC1CCCCC1 [17/34] |  |  | 
1.58 | 6.4 | 6.3 | Cc1c(C(=O)NCC(C)(C)NC(=O)CC2SC(=O)NC2=O)cc(-c2cc(C(C)(C)C)c3c(c2)C2(CCO3)CC2)n1CC1CCCCC1 (stereo not drawn) [17/35] |  |  | 

Compound | IC50 [1, 2] [µM] | pIC50 (FF) (RORγ; [3]) | pIC50 (REN) (RORγ; [4]) | IC50 [1] [µM] | pIC50 (FF) (RORγ) | pIC50 (REN) (RORγ)
Cc1c(C(=O)NC[C@H]2CCCO2)cc(-c2cc(C(C)(C)C)c3c(c2)C2(CCO3)CC2)n1CC1CCCCC1 [17/5] | 0.316 | 6.4 | 6.4 |  |  | 
Cc1c(C(=O)NC[C@@H]2CCCO2)cc(-c2cc(C(C)(C)C)c3c(c2)C2(CCO3)CC2)n1CC1CCCCC1 [17/6] | 0.251 | 6.4 | 6.5 |  |  | 
Cc1c(C(=O)NCC2(CO)COC2)cc(-c2cc(C(C)(C)C)c3c(c2)C2(CCO3)CC2)n1CC1CCCCC1 [17/8] | 0.794 | 7.2 | 7.2 |  |  | 
Cc1c(C(=O)NCC2CCS(=O)(=O)C2)cc(-c2cc(C(C)(C)C)c3c(c2)C2(CCO3)CC2)n1CC1CCCCC1 (stereo not drawn) [17/12] | 0.2 | 7.2 | 7.4 |  |  | 
Cc1c(C(=O)NC2CC(C)(O)C2)cc(-c2cc(C(C)(C)C)c3c(c2)C2(CCO3)CC2)n1CC1CCCCC1 (stereo not drawn) [17/22] | 1 | 6.5 | 6.6 |  |  | 
Cc1c(C(=O)NCC(O)C(F)(F)F)cc(-c2cc(C(C)(C)C)c3c(c2)C2(CCO3)CC2)n1CC1CCCCC1 (stereo not drawn) [17/23] | 1.26 | 6.6 | 6.6 |  |  | 
CC(=O)NC(C)(C)CNC(=O)c1cc(-c2cc(C(C)(C)C)c3c(c2)C2(CCO3)CC2)n(CC2CCCCC2)c1C [17/28] | 0.251 | 7.4 | 7.4 |  |  | 
